Earlier results, collected in patent US20250360221A1 (priority 2025, published 2025).
“Also recorded” adds a separate entry of the source. Counter-ions that a name gives are not always drawn. Like-named read-outs stand apart in the source and are kept apart here.

What was measured:
[1] = across the human BBB; transporter type named
μ-opioid receptor = μ-opioid receptor (Homo sapiens, UniProt P35372)
[2] = humans
[3] = animals, prior art
proteolytic enzymes = settings: compared to other opioid peptides
[4] = system: patients suffering from cancer pain; settings: continuous intrathecal infusion for two weeks
humans = settings: epidural injections
[5] = system: patients with severe cancer pain
[6] = intrathecal, 3 mg, patients with severe cancer pain

μ-opioid receptor, sequence (P35372 whole entry, species assumed): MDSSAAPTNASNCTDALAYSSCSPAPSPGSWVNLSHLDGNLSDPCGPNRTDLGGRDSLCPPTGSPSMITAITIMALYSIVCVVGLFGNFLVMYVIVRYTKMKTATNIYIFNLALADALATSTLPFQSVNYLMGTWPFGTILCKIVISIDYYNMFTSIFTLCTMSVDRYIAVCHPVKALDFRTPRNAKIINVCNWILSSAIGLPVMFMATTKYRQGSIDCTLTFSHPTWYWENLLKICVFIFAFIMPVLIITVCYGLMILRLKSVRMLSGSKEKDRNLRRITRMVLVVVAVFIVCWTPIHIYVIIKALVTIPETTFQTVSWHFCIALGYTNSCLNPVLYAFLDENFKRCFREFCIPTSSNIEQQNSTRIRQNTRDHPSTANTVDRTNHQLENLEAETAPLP

CC/C=C\C/C=C\C/C=C\C/C=C\C/C=C\C/C=C\CCC(=O)O [DHA, docosahexaenoic acid]
Active Transport [1]: + protein

β-endorphin (1-27) (YGGFMTSEKSQTPLVTLFKNAIIKNAY; Beta-endorphin; UniProt P01189 237-263, looked up, fragment) [shorter fragment of β-endorphin]
potency compared to β-endorphin (1-31) (μ-opioid receptor): less potent

α endorphin
analgesic activity (μ-opioid receptor): not analgesic

Cc1cc(OCC(=O)O)cc(C)c1Cc1ccc(O)c(C(C)C)c1 [sobetirome]
crossing of the BBB ([2]; prior art): crosses the BBB

CC(=O)Oc1ccc2c3c1O[C@H]1[C@@H](OC(C)=O)C=C[C@H]4[C@@H](C2)N(C)CC[C@@]341 [Diacetylmorphine]
crossing of the BBB ([2]; prior art): crosses the BBB

O=C1O[C@H]([C@@H](O)CO)C(=O)C1=O [Dehydroascorbic acid]
crossing of the BBB [3]: crosses via GLUT1 transporter the BBB
Active Transport [1]: + GLUT

γ endorphin: γ endorphin, stated not analgesic (YGGFMTSEKSQTPLVTL; Beta-endorphin gamma-endorphin; UniProt P01189 237-253, looked up, fragment)
analgesic activity (μ-opioid receptor): not analgesic

β-endorphin
resistance to degradation by proteolytic enzymes / peptidases (proteolytic enzymes): resistant to degradation by proteolytic enzymes; also recorded: quite stable and resistant to many peptidases
analgesia [4]: profound analgesia
tolerance or respiratory depression [4]: did not demonstrate tolerance; also recorded: no evidence of tolerance or respiratory depression
respiratory depression (animals; intracerebroventricular administration): reports of respiratory depression
tolerance (animals; intracerebroventricular injection): tolerance develops
crossing of the BBB ([2]; administered intravenously): does not cross the BBB
duration of analgesia (humans): 19.5 h
side effects (humans): without major side effects
respiratory depression ([5]; intrathecal or epidural administration to humans): no evidence of respiratory depression
adverse effects [5, 6]: without major adverse effects
duration of analgesia [5, 6]: approximately 33.4 hours

O=C1NC(c2ccccc2)(c2ccccc2)C(=O)N1COP(=O)(O)O [fosphenytoin]
crossing of the BBB ([2]; prior art): crosses the BBB

CC/C=C\C/C=C\C/C=C\CCCCCCCC(=O)O [Linolenic acid]
Active Transport [1]: + lipid

CCOC(=O)CC(O)(CC(=O)OCC)C(=O)OCC [triethyl citrate]
crossing of the BBB ([2]; prior art): probably crosses the BBB

CC(C)CCC[C@@H](C)[C@H]1CC[C@H]2[C@@H]3CC=C4C[C@@H](O)CC[C@]4(C)[C@H]3CC[C@]12C [Cholesterol]
Active Transport [1]: + lipid
